This test concerns the target human PKR1 receptors (Homo sapiens (Human), UniProt Q8TCW9). Put plainly: PKR1 antagonist assay: block of PK1-mediated intracellular calcium release (FLIPR Tetra). The class given is cell-based. As to conditions: RBL2H3 cells expressing human PKR1; stimulation with PK1 at EC80; calcium fluorescence. Here is the method: Prokineticin receptor 1 (PKR1) antagonists may be functionally assessed by measurement of change in intracellular calcium levels induced by Gq mediated increase in inositol triphosphate (IP3) levels. The ability of a compound to block the intracellular release of calcium mediated by PK1 in RBL2H3 cells expressing human PKR1 receptors is determined as a measure of the compound's antagonist activity in vitro.
Approximately 10,000 cells per assay well are seeded in normal culture medium in a 384 well plate (Corning). Twenty-four hours after seeding, the cells are loaded with a calcium sensitive fluorescent dye by replacing the culture medium with assay buffer (1× Hanks buffered saline, 25 mM HEPES, 0.1% w/v fatty acid free BSA (bovine serum albumin), pH 7.4) containing 1 mM probenecid and 1× Calcium 5 Reagent (Molecular Devices). Cells are incubated at 37° C. for 1 hour to allow for dye uptake.
To test for antagonist activity, test compounds at a final concentration range between 0.32 nM-10 μM (diluted in assay buffer) are added to the assay wells and allowed to incubate for 10 minutes prior to stimulation with PK1. After incubation with test compounds the assay plate is placed in a FLIPR Tetra (Molecular Devices) and PK1 (diluted in assay buffer) is added at the determined EC80 concentration (final). Ligand-dependent changes in intracellular calcium levels are determined by measuring changes in fluorescence of the dye at […] following excitation at 485 nm.
A general note: Calcium assays in cells follow changes in intracellular calcium, usually with a dye or a luminescent sensor.

Molecules are shown by their SMILES. Counter-ions that a name gives are not always drawn.

human PKR1 receptors, sequence (Q8TCW9 whole entry): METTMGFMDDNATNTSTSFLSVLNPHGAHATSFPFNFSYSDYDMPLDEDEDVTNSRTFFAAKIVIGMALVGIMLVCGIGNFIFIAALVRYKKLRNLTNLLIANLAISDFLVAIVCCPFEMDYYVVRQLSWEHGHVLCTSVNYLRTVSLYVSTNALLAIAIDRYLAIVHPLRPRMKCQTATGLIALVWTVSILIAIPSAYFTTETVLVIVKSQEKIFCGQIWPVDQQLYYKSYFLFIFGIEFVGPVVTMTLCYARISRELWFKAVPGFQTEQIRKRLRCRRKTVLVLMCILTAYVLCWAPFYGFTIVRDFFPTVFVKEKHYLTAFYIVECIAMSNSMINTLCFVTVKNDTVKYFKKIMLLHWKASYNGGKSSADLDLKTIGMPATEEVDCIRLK

A word on the IC50: it is the point on the concentration scale where inhibition reaches its midpoint. In the case of `Cc1ccc(C2CCCN(C(=O)c3ccnc(N4CCCC4)c3)C2)cc1` (stereo not shown) [Example 35, 4-{[3-(4-Methylphenyl)piperidin-1-yl]carbonyl}-2-(pyrrolidin-1-yl)pyridine], the IC50 amounted to 8.82 µM. In the case of `COc1cccc([C@@H]2CCCN(C(=O)c3ccnc(N(C)C)c3)C2)c1` [Example 36, 4-{[(3S)-3-(3-Methoxyphenyl)piperidin-1-yl]carbonyl}-N,N-dimethylpyridin-2-amine], the IC50 stood at 5.51 µM.

On to `CCN(C)c1cc(C(=O)N2CCCC(c3ccc(C)cc3)C2)ccn1` (stereo not shown) [Example 37, N-Ethyl-N-methyl-4-{[3-(4-methylphenyl)piperidin-1-yl]carbonyl}pyridin-2-amine], for which the IC50 was found to be 5.53 µM. Under `Cc1ccc(C2CCCN(C(=O)c3ccnc(N4CC(F)(F)C4)c3)C2)cc1` (stereo not shown) [Example 38, 2-(3,3-Difluoroazetidin-1-yl)-4-{[3-(4-methylphenyl)piperidin-1-yl]carbonyl}pyridine] stands 6.5 µM.

Consider `CCCN(C)c1cc(C(=O)N2CCCC(c3ccc(C)cc3)C2)ccn1` (stereo not shown) [Example 39, N-Methyl-4-{[3-(4-methylphenyl)piperidin-1-yl]carbonyl}-N-propylpyridin-2-amine], for which the IC50 was found to be 8.22 µM.

Turning to `Cc1ccc(C2CCCN(C(=O)c3ccnc(N(C)C(C)C)c3)C2)cc1` (stereo not shown) [Example 40, N-Methyl-4-{[3-(4-methylphenyl)piperidin-1-yl]carbonyl}-N-(propan-2-yl)pyridin-2-amine], the IC50 stood at 7.03 µM. Under `Cc1ccc(C2CCCN(C(=O)c3ccnc(N4CC(O)C4)c3)C2)cc1` (stereo not shown) [Example 41, 1-(4-{[3-(4-Methylphenyl)piperidin-1-yl]carbonyl}pyridin-2-yl)azetidin-3-ol] stands 8.46 µM; under `CCOc1cc(C(=O)N2CCCC(c3ccc(Cl)cc3)C2)ccn1` (stereo not shown) [Example 42, 4-{[3-(4-Chlorophenyl)piperidin-1-yl]carbonyl}-2-ethoxypyridine], 8.35 µM; under `Cc1ccc(C2CCCN(C(=O)c3ccnc(N(C)C4CC4)c3)C2)cc1` (stereo not shown) [Example 43, N-Cyclopropyl-N-methyl-4-{[3-(4-methylphenyl)piperidin-1-yl]carbonyl}pyridin-2-amine], 7.05 µM.

With `CN(C)c1cc(C(=O)N2CCCC(c3ccc(C(F)(F)F)cc3)C2)ccn1` (stereo not shown) [Example 44, N,N-Dimethyl-4-({3-[4-(trifluoromethyl)phenyl]piperidin-1-yl}carbonyl)pyridin-2-amine formate], the IC50 was found to be 4.4 µM. For the compound `CN(C)c1cc(C(=O)N2CCCC(c3ccccc3C(F)(F)F)C2)ccn1` (stereo not shown) [Example 45, N,N-Dimethyl-4-({3-[2-(trifluoromethyl)phenyl]piperidin-1-yl}carbonyl)pyridin-2-amine], the 50% inhibitory concentration (IC50) turned out to be 0.22 µM. As for `CN(C)c1cc(C(=O)N2CCCC(c3ccccc3Cl)C2)ccn1` (stereo not shown) [Example 46, 4-{[3-(2-Chlorophenyl)piperidin-1-yl]carbonyl}-N,N-dimethylpyridin-2-amine], the IC50 came to 7.79 µM. Under `COc1ccc(C2CCCN(C(=O)c3ccnc(N(C)C)c3)C2)cc1` (stereo not shown) [Example 47, 4-{[3-(4-Methoxyphenyl)piperidin-1-yl]carbonyl}-N,N-dimethylpyridin-2-amine] stands 0.46 µM; under `COc1ccccc1C1CCCN(C(=O)c2ccnc(N(C)C)c2)C1` (stereo not shown) [Example 48, 4-{[3-(2-Methoxyphenyl)piperidin-1-yl]carbonyl}-N,N-dimethylpyridin-2-amine], 0.41 µM; under `Cc1ccc(C2CCCN(C(=O)c3ccnc(N(C)C)c3)C2)cc1` (stereo not shown) [Example 49, N,N-Dimethyl-4-{[3-(4-methylphenyl)piperidin-1-yl]carbonyl}pyridin-2-amine], 0.42 µM. Under `CCc1cc(C(=O)N2CCCC(c3ccc(Cl)cc3)C2)ccn1` (stereo not shown) [Example 52, 4-{[3-(4-Chlorophenyl)piperidin-1-yl]carbonyl}-2-ethylpyridine] stands 0.51 µM; under `CNc1cc(C(=O)N2CCCC(c3ccc(C(F)(F)F)cc3)C2)ccn1` (stereo not shown) [Example 53, N-Methyl-4-({3-[4-(trifluoromethyl)phenyl]piperidin-1-yl}carbonyl)pyridin-2-amine], 2.92 µM.

For the compound `CNc1cc(C(=O)N2CCCC(c3ccccc3C(F)(F)F)C2)ccn1` (stereo not shown) [Example 54, N-Methyl-4-({3-[2-(trifluoromethyl)phenyl]piperidin-1-yl}carbonyl)pyridin-2-amine], the IC50 came out at 0.23 µM. `CNc1cc(C(=O)N2CCCC(c3ccc(OC)cc3)C2)ccn1` (stereo not shown) [Example 55, 4-{[3-(4-Methoxyphenyl)piperidin-1-yl]carbonyl}-N-methylpyridin-2-amine hemi formate]: the IC50 was 0.35 µM. Take `CNc1cc(C(=O)N2CCCC(c3ccccc3OC)C2)ccn1` (stereo not shown) [Example 56, 4-{[3-(2-Methoxyphenyl)piperidin-1-yl]carbonyl}-N-methylpyridin-2-amine]: the IC50 was 0.44 µM. Under `CNc1cc(C(=O)N2CCCC(c3ccc(Cl)cc3C(F)(F)F)C2)ccn1` (stereo not shown) [Example 57, 4-({3-[4-Chloro-2-(trifluoromethyl)phenyl]piperidin-1-yl}carbonyl)-N-methylpyridin-2-amine] stands 0.05 µM. Under `CCc1cc(C(=O)N2CCCC(c3ccccc3C(F)(F)F)C2)ccn1` (stereo not shown) [Example 58, 2-Ethyl-4-({3-[2-(trifluoromethyl)phenyl]piperidin-1-yl}carbonyl)pyridine] stands 0.82 µM. Under `CCc1cc(C(=O)N2CCCC(c3ccccc3OC)C2)ccn1` (stereo not shown) [Example 59, 2-Ethyl-4-{[3-(2-methoxyphenyl)piperidin-1-yl]carbonyl}pyridine] stands 1.6 µM. `CN(C)c1cc(C(=O)N2CCCC(c3ccccc3OC(F)(F)F)C2)ccn1` (stereo not shown) [Example 60, N,N-Dimethyl-4-({3-[2-(trifluoromethoxy)phenyl]piperidin-1-yl}carbonyl)pyridin-2-amine]: the IC50 was determined as 1.6 µM.

As to `CCOc1cc(Cl)ccc1C1CCCN(C(=O)c2ccnc(N(C)C)c2)C1` (stereo not shown) [Example 61, 4-{[3-(4-Chloro-2-ethoxyphenyl)piperidin-1-yl]carbonyl}-N,N-dimethylpyridin-2-amine], the 50% inhibitory concentration (IC50) is 0.1 µM. Next, `COc1ccc(C2CCCN(C(=O)c3ccnc(N(C)C)c3)C2)c(C(F)(F)F)c1` (stereo not shown) [Example 62, 4-({3-[4-Methoxy-2-(trifluoromethyl)phenyl]piperidin-1-yl}carbonyl)-N,N-dimethylpyridin-2-amine]: 0.1 µM; `CNc1cc(C(=O)N2CCCC(c3ccc(OC)cc3C)C2)ccn1` (stereo not shown) [Example 63, 4-{[3-(4-Methoxy-2-methylphenyl)piperidin-1-yl]carbonyl}-N-methylpyridin-2-amine]: 0.04 µM. Under `CNc1cc(C(=O)N2CCCC(c3ccc(OC)cc3C(F)(F)F)C2)ccn1` (stereo not shown) [Example 64, 4-({3-[4-Methoxy-2-(trifluoromethyl)phenyl]piperidin-1-yl}carbonyl)-N-methylpyridin-2-amine formate] stands 0.05 µM; under `CCOc1cc(Cl)ccc1C1CCCN(C(=O)c2ccnc(NC)c2)C1` (stereo not shown) [Example 65, 4-{[3-(4-Chloro-2-ethoxyphenyl)piperidin-1-yl]carbonyl}-N-methylpyridin-2-amine], 0.07 µM. Next, `CN(C)c1cc(C(=O)N2CCCC(c3ccccc3OC(F)F)C2)ccn1` (stereo not shown) [Example 66, 4-({3-[2-(Difluoromethoxy)phenyl]piperidin-1-yl}carbonyl)-N,N-dimethylpyridin-2-amine]: 0.7 µM; `CN(C)c1cc(C(=O)N2CCCC(c3ccccc3C#N)C2)ccn1` (stereo not shown) [Example 67, 2-(1-{[2-(Dimethylamino)pyridin-4-yl]carbonyl}piperidin-3-yl)benzonitrile]: 2.26 µM; `Cc1cc(Cl)cc(C)c1C1CCCN(C(=O)c2ccnc(N(C)C)c2)C1` (stereo not shown) [Example 68, 4-{[3-(4-Chloro-2,6-dimethylphenyl)piperidin-1-yl]carbonyl}-N,N-dimethylpyridin-2-amine]: 1.54 µM. In the case of `CN(C)c1cc(C(=O)N2CCCC(c3ccc(Cl)cc3)C2)cnn1` (stereo not shown) [Example 69, 5-{[3-(4-Chlorophenyl)piperidin-1-yl]carbonyl}-N,N-dimethylpyridazin-3-amine], the half-inhibitory concentration (IC50) stood at 0.81 µM. Next, `CNc1cc(C(=O)N2CCCC(c3ccc(Cl)cc3C)C2)cnn1` (stereo not shown) [Example 71, 5-{[3-(4-Chloro-2-methylphenyl)piperidin-1-yl]carbonyl}-N-methylpyridazin-3-amine]: 0.07 µM. Next, `CNc1cc(C(=O)N2CCC[C@H](c3ccc(Cl)cc3C)C2)cnn1` [Example 72, 5-{[(3R)-3-(4-Chloro-2-methylphenyl)piperidin-1-yl]carbonyl}-N-methylpyridazin-3-amine]: 0.03 µM. Under `COc1cc(C(=O)N2CCCC(c3ccc(Cl)cc3C)C2)cnn1` (stereo not shown) [Example 74, 5-{[3-(4-Chloro-2-methylphenyl)piperidin-1-yl]carbonyl}-3-methoxypyridazine] stands 0.35 µM; under `CN(C)c1cc(C(=O)N2CCCC(c3ccc(Cl)cc3C(F)(F)F)C2)cnn1` (stereo not shown) [Example 75, 5-({3-[4-Chloro-2-(trifluoromethyl)phenyl]piperidin-1-yl}carbonyl)-N,N-dimethylpyridazin-3-amine], 0.11 µM.

The values above are taken from patent US9790201B2, “Piperidine and azepine derivatives as prokineticin receptor modulators” (TAKEDA PHARMACEUTICAL COMPANY LIMITED, priority 2013, dated 2017).
